Laboratory results: patent US20240190889A1, “NEW CYCLOPENTA-THIENO-DIAZEPINE DERIVATIVES AS GABA A GAMMA1 POSITIVE ALLOSTERIC MODULATORS” (Hoffmann-La Roche Inc., priority 2021, published 2024)
Read-outs that look alike come from different tables or passages of the source.

How the values were obtained:
[1] = target: human GABAA α1β2γ1 receptor (Homo sapiens (Human), UniProt P14867+Q8N1C3); experiment: Radioligand binding assay, competition for [3H]RO7239181, γ1-containing GABAA subtypes
[2] = target: human GABAA α1β3γ2 receptor (Homo sapiens (Human), UniProt P14867+P18507); experiment: Radioligand binding assay, competition for [3H]Flumazenil, γ2-containing GABAA subtypes; conditions: for γ2/γ1 Selectivity Ratio: Ki α1β3γ2 (nM)/Ki α2β2γ1 (nM); for LogSel: Log[Ki α1β3γ2 (nM)/Ki α2β2γ1 (nM)]
Procedure: Membrane Preparation and Binding Assay for γ2-containing GABAA Subtypes
The affinity of compounds at GABAA γ2 subunit-containing receptors was measured by competition for [^3H]Flumazenil (81.1 Ci/mmol; Roche) binding to HEK293F cells expressing human (transiently transfected) receptors of composition α1β3γ2.
Harvested pellets from HEK293F cells expressing the different GABAA γ2 receptor subtypes were resuspended in Mannitol Buffer pH 7,2-7,4 and processed as described above for the cells expressing the GABAA γ1 subunit-containing receptors.
Assays were incubated to equilibrium for 1 hour at 4° C, and harvested onto GF/C uni-filters (Packard) by filtration using a Packard harvester and washing with ice-cold wash buffer (50 mM Tris; pH 7.5). After anhydrousing, filter-retained radioactivity was detected by liquid scintillation counting. Ki values were calculated using Excel-Fit (Microsoft) and are the means of two determinations.

[3] = target: h-GABA-A α2β2γ1 receptor expressed in Xenopus laevis oocytes (Homo sapiens (Human), UniProt P47869+Q8N1C3); experiment: Two-electrode voltage clamp electrophysiology in Xenopus oocytes expressing GABAA receptors; assay type: cell-based; conditions: for Efficacy (GABA)%: % modulation of GABA EC20 = 100*(Fold increase-1), compound at 30-fold Ki α2β2γ1; for Fold increase h-GABA-A α2β2γ1 oocyte @ 30-fold Ki: GABA EC20, test compound at approx. 30-fold its Ki α2β2γ1, at least 3 oocytes
Description: Functional Expression of GABAA Receptors:
Xenopus Oocytes Preparation
Xenopus laevis oocytes at maturation stages V-VI were used for the expression of cloned mRNA encoding GABAA receptor subunits. Oocytes ready for RNA micro-injection were bought from Ecocyte, Castrop-Rauxel, Germany and stored in modified Barth's medium (composition in mM: NaCl 88, KCl 1, NaHCO3 2.4, HEPES 10, MgSO4 0.82, CaNO3 0.33, CaCl2 0.33, pH=7.5) at 20 C. until the experiment.
Xenopus Oocytes Microinjection
Oocytes were plated in 96-well plates for microinjection using the Roboinject automated instrument (MultiChannelSystems, Reutlingen, Germany). Approximately 50 nL of an aqueous solution containing the RNA transcripts for the subunits of the desired GABAA receptor subtype was injected into each oocyte. […] Oocytes were kept in modified Barth's medium (composition in mM: NaCl 88, KCl 1, NaHCO3 […], HEPES 10, MgSO4 0.82, CaNO3 0.33, CaCl2 0.33, pH=7.5) at 20° C. until the experiment.
Electrophysiological experiments were performed using the Roboocyte instrument (MultiChannelSystems, Reutlingen, Germany) on days 3 to 5 after the micro-injection of mRNA. During the experiment the oocytes were constantly superfused by a solution containing (in mM) NaCl 90, KCl 1, HEPES 5, MgCl: 1, CaCl, 1 (pH 7.4). Oocytes were impaled by two glass microelectrodes (resistance: 0.5-0.8 MS2) which were filled with a solution containing KCl 1M +K-acetate 1.5 M and voltage-clamped to −80 mV. The recordings were performed at room temperature using the Roboocyte two-electrode voltage clamp system (Multichannelsystem). After an initial equilibration period of 1.5 min GABA was added for 1.5 min at a concentration evoking approximately 20% of a maximal current response (EC20). After another rest interval of 2.5 min GABA was again added evoking a response of similar amplitude and shape. […] Current traces were recorded at a digitization rate of 10 Hz during and shortly before and after the GABA application.
Each compound and concentration was tested on at least 3 oocytes. Different oocytes were used for different compound concentrations.
For the analysis, the digitized current traces of the first and second GABA response were superimposed and, if necessary, rescaled to equal maximal amplitudes. The ratio between the two responses during the time interval of test compound application was calculated point by point. The extremum of the resulting “ratio trace” was taken as the efficacy (“Fold increase”) of the compound expressed as “% modulation of GABA EC” (100* (Fold increase-1)).

[4] = HEK293F cell membranes, [3H]Flumazenil 1 nM, mean of two determinations, read-out: Ki h-GABAA α1β3γ2

| SMILES | Ki [1] | Ki [2] | γ2/γ1 Selectivity Ratio [2] | LogSel [2] | Efficacy (GABA)% [3] | Fold increase h-GABA-A α2β2γ1 oocyte @ 30-fold Ki [3] | Ki [2, 4] |
| --- | --- | --- | --- | --- | --- | --- | --- |
| Cc1nnc2n1-c1sc3c(c1C(c1c(F)cccc1F)=N[C@H]2C)C[C@@H](C(F)F)C3 [Example 5, (7S,13R)-13-(difluoromethyl)-9-(2,6-difluorophenyl)-3,7-dimethyl-16-thia-2,4,5,8-tetrazatetracyclo [8.6.0.02,6.011,15]hexadeca-1(10),3,5,8,11(15)-pentaene] | 14.4 nM | 228 nM | 66.5 | 1.82 | 41% | 1.41 |  |
| Cc1nnc2n1-c1sc3c(c1C(c1c(F)cccc1F)=NC2)C[C@@H](C(F)F)C3 [Example 3, (13R)-13-(difluoromethyl)-9-(2,6-difluorophenyl)-3-methyl-16-thia-2,4,5,8-tetrazatetracyclo [8.6.0.02,6.011,15]hexadeca-1(10),3,5,8,11(15)-pentaene] | 16.8 nM | 257 nM | 88.4 | 1.95 | 54% | 1.54 |  |
| Cc1nnc2n1-c1sc3c(c1C(c1c(F)cccc1Cl)=NC2)C[C@@H](C#N)C3 [Example 1, (13R)-9-(2-chloro-6-fluoro-phenyl)-3-methyl-16-thia-2,4,5,8-tetrazatetracyclo [8.6.0.02,6.011,15]hexadeca-1(10),3,5,8,11(15)-pentaene-13-carbonitrile] | 47.9 nM |  | 49.0 | 1.69 | 54% | 1.54 | 1250 nM |
| C[C@@H]1N=C(c2c(F)cccc2F)c2c(sc3c2C[C@@H](C(F)F)C3)-n2c(C3CC3)nnc21 [Example 8, (7S,13R)-3-cyclopropyl-13-(difluoromethyl)-9-(2,6-difluorophenyl)-7-methyl-16-thia-2,4,5,8-tetrazatetracyclo [8.6.0.02,6.011,15]hexadeca-1(10),3,5,8,11(15)-pentaene] |  | 455 nM | 99.2 | 2.00 | 37% | 1.37 |  |
| C[C@@H]1N=C(c2c(F)cccc2Cl)c2c(sc3c2C[C@@H](C(F)F)C3)-n2c(C3CC3)nnc21 [Example 11, (7S,13R)-9-(2-chloro-6-fluoro-phenyl)-3-cyclopropyl-13-(difluoromethyl)-7-methyl-16-thia-2,4,5,8-tetrazatetracyclo [8.6.0.02,6.011,15]hexadeca-1(10),3,5,8,11(15)-pentaene] |  | 1120 nM | 108.6 | 2.04 | 44% | 1.44 |  |
| C[C@@H]1N=C(c2c(F)cccc2Cl)c2c(sc3c2C[C@@H](C(F)F)C3)-n2c(-c3cccnn3)nnc21 [Example 12, (7S,13R)-9-(2-chloro-6-fluoro-phenyl)-13-(difluoromethyl)-7-methyl-3-pyridazin-3-yl-16-thia-2,4,5,8-tetrazatetracyclo [8.6.0.02,6.011,15]hexadeca-1(10),3,5,8,11(15)-pentaene] |  | 2360 nM | 176.0 | 2.25 | 62% | 1.62 |  |
| Cc1nnc2n1-c1sc3c(c1C(c1c(F)cccc1F)=NC2)C[C@@H](C#N)C3 [Example 2, (13R)-9-(2,6-difluorophenyl)-3-methyl-16-thia-2,4,5,8-tetrazatetracyclo [8.6.0.02,6.011,15]hexadeca-1(10),3,5,8,11(15)-pentaene-13-carbonitrile] |  |  | 50.7 | 1.71 | 35% | 1.35 | 2160 nM |
